According to patent US20110071142A1, “IDENTIFICATION AND USE OF SMALL MOLECULES TO MODULATE TRANSCRIPTION FACTOR FUNCTION AND TO TREAT TRANSCRIPTION FACTOR ASSOCIATED DISEASES” (BETH ISRAEL DEACONESS MEDICAL CENTER, priority 2007, published 2011):
Like-named read-outs stand apart in the source and are kept apart here.

Tests used:
Ets-1-DNA interaction = target: T1, Ets-1-DNA interaction (Homo sapiens, UniProt P14921); experiment: Electrophoretic mobility shift assay (EMSA) of Ets-1 DNA binding
T1 construct: host or cells: cell-free in vitro translation, rabbit reticulocyte lysate
T1 sequence (P14921 1-441): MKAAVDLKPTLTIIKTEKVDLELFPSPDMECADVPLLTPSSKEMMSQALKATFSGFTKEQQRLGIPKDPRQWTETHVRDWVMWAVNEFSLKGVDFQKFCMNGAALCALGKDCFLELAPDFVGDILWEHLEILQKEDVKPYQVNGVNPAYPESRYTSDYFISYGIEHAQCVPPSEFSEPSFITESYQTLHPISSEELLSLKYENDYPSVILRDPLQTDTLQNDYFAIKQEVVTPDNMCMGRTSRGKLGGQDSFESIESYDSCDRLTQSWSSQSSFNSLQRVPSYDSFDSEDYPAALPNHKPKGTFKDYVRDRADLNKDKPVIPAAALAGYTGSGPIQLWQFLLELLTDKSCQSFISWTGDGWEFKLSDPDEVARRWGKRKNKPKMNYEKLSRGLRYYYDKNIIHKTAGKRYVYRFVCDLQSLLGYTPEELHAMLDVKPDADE
Experimental: Initially it is determined whether the identified small molecule “hits” interfere with Ets-1-DNA binding using electrophoretic mobility shift assays (EMSAs). These are performed as described previously (142). In brief, in vitro translated Ets-1 protein is generated using a rabbit reticulolysate system (Promega) and a mammalian expression plasmid encoding the Ets-1 protein. 1 μl of the in vitro translation reaction and 0.1-0.2
ng [32P]dATP-labeled double-stranded oligonucleotide probe (5,000-10,000 cpm) will be run on 4% polyacrylamide gels containing 0.5×TBE buffer. […] The small molecules identified are initially evaluated at a concentration of 1 mM, which is the concentration used in high throughput fraganomic approaches for evaluating the interaction of weak-binding small molecules (143, 144). Those small molecules that inhibit the Ets-1-DNA interaction will be re-evaluated over a concentration range of 10 μM-1 mM. Solutions containing DMSO alone will be used as a vehicle control. To ensure the small molecule is specifically targeting the Ets-1-DNA interface and not interacting non-specifically with the DNA, a non-specific promoter is included as well as a control small molecule that is not selected as a “hit” by our HTD screen. To further confirm the molecular specificity of these small molecules for targeting Ets-1, EMSAs will be performed with other members of the ETS family. Ethidium bromide displacement assays could also be used to confirm that the small molecules are not nonspecifically targeting the DNA sequence (145).

Ets-1 transactivation = experiment: Reporter gene transactivation assays (transient transfection); assay type: cell-based, Human
Experimental: Several downstream targets of Ets-1 including the MCP-1 gene, PAI1, and Flt-1 (49, 142) have been identified. To further define the specificity of small molecules that inhibit DNA binding of Ets-1 in EMSAs, their ability is evaluated with regard to inhibiting transactivation of the MCP-1, PAI-1, and Flt-1 promoters by Ets-1, without affecting the basal activity of the promoter. As controls, the endothelial-specific promoters Tie1 and Tie2 are used, that have been previously shown as targets of the Ets factors NERF2 and Elf-1, but not Ets-1 or Ets-2 (142, 146). The promoters of these genes have previously been subcloned into the PGL2 luciferase reporter (Promega). Similarly, we have previously subcloned the
cDNAs encoding the ETS factors Ets-1, Ets-2, NERF2, and Elf-1 into the PCI mammalian expression plasmid.
Human embryonic kidney cells (HEK 293) are cultured as previously described (147). HEK 293 cells are kidney epithelial cells that express low basal levels of Ets-1, and are easily transfected. Cotransfections of 2×10^5 HEK 293 cells are carried out with 0.3 μg of the reporter gene construct DNA and 0.15 μg of the mammalian expression vector encoding the selected Ets factors using 4 μl LipofectAMINE (Invitrogen, San Diego, Calif.) as described (148). […]

[1] = tested on: Ets-1 mediated gene expression; experiment: Ets-1 mediated gene expression in HEK293 cells; assay type: cell-based, Human
Ets-1 expression = experiment: Real time PCR of IL-1 induced Ets-1 expression in HUVECs; assay type: cell-based, Human; conditions: 10 μM, preincubated 1 h, IL-1 10 ng/ml, 2 hr
Experimental: (§1) SYBR Green I-based real-time PCR is carried out on an Opticon Monitor (MJ Research, Inc, Waltham, Mass.). All PCR mixtures contain PCR buffer [final concentration: 10 mM Tris-HCl (pH9.0), 50 mM KCl, 2 mM MgCl2 and 0.1% TritonX-100], 250 μM deoxy-NTP (Roche), 0.5 μM of each PCR primer, 0.5×SYBR Green I,
(§2) 5% DMSO, and 1U Taq DNA polymerase (Promega, Madison, Wis.) with 2 μl cDNA in a 25 μl final volume of reaction mix. Then, the fluorescence signal is measured immediately following incubation at 78° C. for 5 s that follows each extension step, which eliminates possible primer dimer detection. At the end of PCR cycles, a melting curve will be generated to identify specificity of the PCR product. For each run, serial dilutions of human GAPDH plasmids are used as standards for quantitative measurement of the amount of amplified cDNA. For normalization of each sample, GAPDH primers are used to measure the GAPDH cDNA levels. Cytotoxicity Evaluation of “hit” Compounds Using MTS Assay
(§3) Total RNA was isolated for real time PCR to measure Ets-1 expression levels as well as the IL-1 inducible, Ets-1
(§4) dependent MCP-1 expression levels, following stimulation for 1, 2, 4, 6 and 12 hours. IL-1 induced Ets-1 expression ˜4 fold at 2 hr, however compound #28 reduced Ets-1 induction by greater than 50% during this time frame. […]

MCP-1 expression = experiment: Real time PCR of IL-1 inducible, Ets-1 dependent MCP-1 expression in HUVECs; assay type: cell-based, Human; conditions: 10 μM, preincubated 1 h, IL-1 10 ng/ml
Experimental: as §1, §2, §3, §4

## Nc1ccccc1SC(C[N+](=O)[O-])c1ccc2c(c1)OCO2 (stereo not shown) [Compound 28, 2-{[1-(1,3-benzodioxol-5-yl)-2-nitroethyl]thio}aniline]
Ets-1-DNA interaction
  inhibition of Ets-1 DNA binding: inhibits Ets-1 DNA binding
  inhibits the Ets-1-DNA interaction, concentration range as estimated using EMSAs: low uM range
Ets-1-DNA interaction; FIG. 8 legend: HUVECs preincubated with 10 μM
  inhibition of Ets-1 DNA binding: inhibits Ets-1 DNA binding
Ets-1 transactivation
  inhibition of transactivation assays: 8 fold
[1]
  decrease of Ets-1 mediated gene expression: 50-60%
Ets-1 expression
  reduction of IL-1 induced Ets-1 induction: greater than 50%
MCP-1 expression
  reduction of IL-1 induced MCP-1 expression: greater than 40%
